Data reported in article PMC10058238 (Science Advances, 2023).
Each block holds one compound with its values, some of them ahead of it.

What was measured:
Format in all cases: biochemical
[1] = biological target: T1, AtSPT-ORM1 complex (LCB1, LCB2a, SPTssa, ORM1) (Arabidopsis thaliana, UniProt Q94IB8+Q9C5I0+Q9LSZ9); test: SPT activity, DTNB detection of CoA-SH release, […] nm
T1 construct: full-length codon-optimized cDNAs; N-terminal Flag on SPTssa, other chains untagged; HEK293F, GDN; dimer of 1:1:1:1 protomers; endogenous ceramide copurifies; with Long chain base biosynthesis protein 1; Serine palmitoyltransferase small subunit A
T1 sequence (Q9C5I0 1-157, one chain of several): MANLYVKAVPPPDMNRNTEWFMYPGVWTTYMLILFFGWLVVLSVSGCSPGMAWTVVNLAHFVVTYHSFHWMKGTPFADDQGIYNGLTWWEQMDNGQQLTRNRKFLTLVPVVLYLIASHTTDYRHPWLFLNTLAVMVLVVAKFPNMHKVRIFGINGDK

[2] = biological target: T2, AtSPT-ORM1 complex (LCB1, LCB2a, SPTssa, ORM1) (Arabidopsis thaliana, UniProt Q94IB8+Q9C5I0+Q9LSZ9, Q9C5I0:W20R); test: as above; details: saturating 100 mM L-serine, 100 μM palmitoyl-CoA, 25 μM PLP, pH 7.5, 30 °C; ceramide site
T2 construct: full-length codon-optimized cDNAs; N-terminal Flag on SPTssa, other chains untagged; HEK293F, GDN; dimer of 1:1:1:1 protomers; endogenous ceramide copurifies; with Long chain base biosynthesis protein 1; Serine palmitoyltransferase small subunit A
T2 sequence (Q9C5I0 1-157 W20R, one chain of several): as the sequence (Q9C5I0 1-157, one chain of several) above, with W20R counted along it

[3] = biological target: T3, AtSPT-ORM1 complex (LCB1, LCB2a, SPTssa, ORM1) (Arabidopsis thaliana, UniProt Q94IB8+Q9C5I0+Q9LSZ9, Q9C5I0:N17A); test: as above
T3 construct: full-length codon-optimized cDNAs; N-terminal Flag on SPTssa, other chains untagged; HEK293F, GDN; dimer of 1:1:1:1 protomers; endogenous ceramide copurifies; with Long chain base biosynthesis protein 1; Serine palmitoyltransferase small subunit A
T3 sequence (Q9C5I0 1-157 N17A, one chain of several): as the sequence (Q9C5I0 1-157, one chain of several) above, with N17A counted along it

[4] = biological target: T4, AtSPT-ORM1 complex (LCB1, LCB2a, SPTssa, ORM1) (Arabidopsis thaliana, UniProt Q94IB8+Q9C5I0+Q9LSZ9, Q9C5I0:DEL2-8); test: as above
T4 construct: full-length codon-optimized cDNAs; N-terminal Flag on SPTssa, other chains untagged; HEK293F, GDN; dimer of 1:1:1:1 protomers; endogenous ceramide copurifies; with Long chain base biosynthesis protein 1; Serine palmitoyltransferase small subunit A
T4 sequence (Q9C5I0 entry or part of it DEL2-8, one chain of several): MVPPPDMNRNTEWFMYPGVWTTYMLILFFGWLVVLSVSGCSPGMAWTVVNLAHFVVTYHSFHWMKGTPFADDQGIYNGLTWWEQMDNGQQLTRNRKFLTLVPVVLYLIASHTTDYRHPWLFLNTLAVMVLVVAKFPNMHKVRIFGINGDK

[5] = biological target: T5, AtSPT-ORM1 complex (LCB1, LCB2a, SPTssa, ORM1) (Arabidopsis thaliana, UniProt Q94IB8+Q9C5I0+Q9LSZ9, Q9LSZ9:DEL2-5); test: as above
T5 construct: full-length codon-optimized cDNAs; N-terminal Flag on SPTssa, other chains untagged; HEK293F, GDN; dimer of 1:1:1:1 protomers; endogenous ceramide copurifies; with Long chain base biosynthesis protein 1; Serine palmitoyltransferase small subunit A
T5 sequence (Q9LSZ9 with tags, fused parts or gaps DEL2-5, one chain of several): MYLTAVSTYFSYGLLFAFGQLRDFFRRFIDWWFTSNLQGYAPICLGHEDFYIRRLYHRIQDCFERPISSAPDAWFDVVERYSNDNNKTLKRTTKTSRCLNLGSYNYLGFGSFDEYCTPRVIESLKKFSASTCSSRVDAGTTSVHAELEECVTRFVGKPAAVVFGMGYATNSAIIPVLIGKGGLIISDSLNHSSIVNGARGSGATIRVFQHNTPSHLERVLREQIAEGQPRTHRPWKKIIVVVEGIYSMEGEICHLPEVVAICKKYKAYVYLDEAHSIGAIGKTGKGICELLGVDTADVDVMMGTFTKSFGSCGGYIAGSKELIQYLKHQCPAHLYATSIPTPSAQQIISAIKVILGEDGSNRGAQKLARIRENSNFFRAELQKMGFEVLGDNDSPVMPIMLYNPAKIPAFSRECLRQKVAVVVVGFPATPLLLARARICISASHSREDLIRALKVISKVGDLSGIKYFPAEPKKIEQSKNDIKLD
T5 sequence (Q9C5I0 1-157, stated change not applied, one chain of several): as the sequence (Q9C5I0 1-157, one chain of several) above

[6] = biological target: T6, AtSPT-ORM1 complex (LCB1, LCB2a, SPTssa, ORM1) (Arabidopsis thaliana, UniProt Q94IB8+Q9C5I0+Q9LSZ9, Q9C5I0:S67R); test: as above
T6 construct: full-length codon-optimized cDNAs; N-terminal Flag on SPTssa, other chains untagged; HEK293F, GDN; dimer of 1:1:1:1 protomers; endogenous ceramide copurifies; with Long chain base biosynthesis protein 1; Serine palmitoyltransferase small subunit A
T6 sequence (Q9C5I0 1-157 S67R, one chain of several): as the sequence (Q9C5I0 1-157, one chain of several) above, with S67R counted along it

[7] = biological target: T7, AtSPT-ORM1 complex (LCB1, LCB2a, SPTssa, ORM1) (Arabidopsis thaliana, UniProt Q94IB8+Q9C5I0+Q9LSZ9, Q9C5I0:N17A/Q9C5I0:S67R); test: as above; details: saturating 100 mM L-serine, 100 μM palmitoyl-CoA, 25 μM PLP, pH 7.5, 30 °C; ceramide site
T7 construct: full-length codon-optimized cDNAs; N-terminal Flag on SPTssa, other chains untagged; HEK293F, GDN; dimer of 1:1:1:1 protomers; endogenous ceramide copurifies; with Long chain base biosynthesis protein 1; Serine palmitoyltransferase small subunit A
T7 sequence (Q9C5I0 1-157 N17A/S67R, one chain of several): as the sequence (Q9C5I0 1-157, one chain of several) above, with N17A, S67R counted along it

[8] = biological target: T8, AtSPT-ORM1 complex (LCB1, LCB2a, SPTssa, ORM1) (Arabidopsis thaliana, UniProt Q94IB8+Q9C5I0+Q9LSZ9, Q9C5I0:DEL2-14); test: as above; details: saturating 100 mM L-serine, 100 μM palmitoyl-CoA, 25 μM PLP, pH 7.5, 30 °C; ceramide site
T8 construct: full-length codon-optimized cDNAs; N-terminal Flag on SPTssa, other chains untagged; HEK293F, GDN; dimer of 1:1:1:1 protomers; endogenous ceramide copurifies; with Long chain base biosynthesis protein 1; Serine palmitoyltransferase small subunit A
T8 sequence (Q9C5I0 entry or part of it DEL2-14, one chain of several): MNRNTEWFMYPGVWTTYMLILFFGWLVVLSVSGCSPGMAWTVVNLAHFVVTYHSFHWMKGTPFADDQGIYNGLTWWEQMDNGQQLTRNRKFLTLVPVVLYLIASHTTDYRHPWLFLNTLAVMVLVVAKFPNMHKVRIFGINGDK

[9] = biological target: T9, AtSPT-ORM1 complex (LCB1, LCB2a, SPTssa, ORM1) (Arabidopsis thaliana, UniProt Q94IB8+Q9C5I0+Q9LSZ9, Q9C5I0:W88R); test: as above; details: saturating 100 mM L-serine, 100 μM palmitoyl-CoA, 25 μM PLP, pH 7.5, 30 °C; ceramide site
T9 construct: full-length codon-optimized cDNAs; N-terminal Flag on SPTssa, other chains untagged; HEK293F, GDN; dimer of 1:1:1:1 protomers; endogenous ceramide copurifies; with Long chain base biosynthesis protein 1; Serine palmitoyltransferase small subunit A
T9 sequence (Q9C5I0 1-157 W88R, one chain of several): as the sequence (Q9C5I0 1-157, one chain of several) above, with W88R counted along it

[10] = biological target: T1, AtSPT-ORM1 complex (LCB1, LCB2a, SPTssa, ORM1); test: as above; details: 100 mM L-serine, 100 μM palmitoyl-CoA, 25 μM PLP, pH 7.5, 30 °C; active site in LCB2a/LCB1
[11] = biological target: T10, AtSPT complex (LCB1, LCB2a, SPTssa) (Arabidopsis thaliana, UniProt Q94IB8+Q9LSZ9); test: as above; details: 100 mM L-serine, 100 μM palmitoyl-CoA, 25 μM PLP, pH 7.5, 30 °C; active site in LCB2a/LCB1
T10 construct: full-length codon-optimized cDNAs; N-terminal Flag on SPTssa, other chains untagged; HEK293F, GDN; without ORM1; with Serine palmitoyltransferase small subunit A
T10 sequence (Q9LSZ9 1-489): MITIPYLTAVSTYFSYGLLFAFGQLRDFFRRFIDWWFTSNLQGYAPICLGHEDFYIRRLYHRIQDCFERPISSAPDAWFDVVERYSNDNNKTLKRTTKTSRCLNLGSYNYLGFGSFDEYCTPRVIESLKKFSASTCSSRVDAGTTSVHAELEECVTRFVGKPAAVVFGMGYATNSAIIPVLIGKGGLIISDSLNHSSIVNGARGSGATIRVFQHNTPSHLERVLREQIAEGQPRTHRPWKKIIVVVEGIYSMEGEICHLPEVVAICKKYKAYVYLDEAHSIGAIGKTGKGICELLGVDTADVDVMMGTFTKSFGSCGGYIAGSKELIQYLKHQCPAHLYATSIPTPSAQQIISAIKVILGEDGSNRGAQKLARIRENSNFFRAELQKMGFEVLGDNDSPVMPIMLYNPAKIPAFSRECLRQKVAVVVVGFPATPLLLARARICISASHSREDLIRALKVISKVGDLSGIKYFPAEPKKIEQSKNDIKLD
T10 sequence (Q94IB8 1-482): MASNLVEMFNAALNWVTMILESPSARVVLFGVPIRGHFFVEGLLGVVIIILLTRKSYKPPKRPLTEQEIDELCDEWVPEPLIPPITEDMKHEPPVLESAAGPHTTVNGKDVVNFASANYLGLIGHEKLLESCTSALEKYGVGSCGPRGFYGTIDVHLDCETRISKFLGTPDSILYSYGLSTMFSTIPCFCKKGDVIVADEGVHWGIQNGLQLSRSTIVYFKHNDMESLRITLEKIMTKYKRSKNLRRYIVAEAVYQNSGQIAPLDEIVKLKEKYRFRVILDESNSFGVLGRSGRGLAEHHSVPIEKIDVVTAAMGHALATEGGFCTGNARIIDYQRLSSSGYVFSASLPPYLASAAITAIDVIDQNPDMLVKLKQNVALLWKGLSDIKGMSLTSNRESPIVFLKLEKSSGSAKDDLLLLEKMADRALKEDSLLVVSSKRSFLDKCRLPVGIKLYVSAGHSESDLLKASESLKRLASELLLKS
T10 sequence (A8MSB8 1-56 partner): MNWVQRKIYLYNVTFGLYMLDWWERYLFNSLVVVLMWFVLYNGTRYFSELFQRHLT

[12] = biological target: T3, AtSPT-ORM1 complex (LCB1, LCB2a, SPTssa, ORM1); test: SPT activity, DTNB detection of CoA-SH release, […] nm; sigmoidal fit; details: 100 mM L-serine, 25 μM PLP, pH 7.5, 30 °C; active site in LCB2a/LCB1
[13] = biological target: T8, AtSPT-ORM1 complex (LCB1, LCB2a, SPTssa, ORM1); test: as above; details: 100 mM L-serine, 25 μM PLP, pH 7.5, 30 °C; active site in LCB2a/LCB1

IC50 [1]: 3500 nM
SMILES: CCCCCCCCCCCCC/C=C/[C@@H](O)[C@H](CO)NC(=O)CCCCC [C6-ceramide]

IC50 [1]: 320 nM
IC50 [3]: 1680 nM
IC50 [4]: 1280 nM
IC50 [5]: 990 nM
IC50 [6]: 1260 nM
SMILES: CCCCCCCCCCCCCC[C@@H](O)[C@@H](O)[C@H](CO)NC(=O)CCCCC [C6-phytoceramide]
SPT activity, DTNB detection of CoA-SH release, 412 nm [2]: ORM1-W20R or ORM1-W88R mutation also virtually abolished the inhibitory effect of C6-phytoceramide
SPT activity, DTNB detection of CoA-SH release, 412 nm [7]: ORM1-N17A/S67R double mutation nearly eliminated the inhibitory effect of C6-phytoceramide
SPT activity, DTNB detection of CoA-SH release, 412 nm [8]: basically eliminated the inhibitory effect of C6-phytoceramide
SPT activity, DTNB detection of CoA-SH release, 412 nm [9]: ORM1-W20R or ORM1-W88R mutation also virtually abolished the inhibitory effect of C6-phytoceramide

SMILES: CCCCCCC(=O)CCCCCC/C=C/C[C@@H](O)[C@H](O)[C@@](N)(CO)C(=O)O [myriocin]
inhibition at 10 μM [10]: can be repressed by a potent SPT-specific inhibitor myriocin
inhibition at 10 μM [11]: can be repressed by a potent SPT-specific inhibitor myriocin

SMILES: CCCCCCCCCCCCCCCC(=O)SCCNC(=O)CCNC(=O)[C@H](O)C(C)(C)COP(=O)(O)OP(=O)(O)OC[C@H]1O[C@@H](n2cnc3c(N)ncnc32)[C@H](O)[C@@H]1OP(=O)(O)O [palmitoyl-CoA]
Khalf [12]: the Khalf value of the variant toward palmitoyl-CoA was nearly seven times as high
Khalf [13]: the Khalf value of the AtSPT-ORM1 (ORM1-ΔN14) variant toward palmitoyl-CoA was much lower
